# Laboratory results taken from publication PMC5515969, “Effects of 31 FDA approved small-molecule kinase inhibitors on isolated rat liver mitochondria” (Archives of Toxicology, 2016).
# Where two headings read alike, the source gives them in different places.
# How the values were obtained:
# [1] = system: isolated rat liver mitochondria; assay: Mitochondrial inner membrane potential (MMP), Rhodamine 123; type: biochemical; conditions: difference in signal between KI and DMSO treated samples at the end of experiments
# From the text: Fig. 3 KI effects on mitochondrial inner membrane potential (MMP). […] In a, c, data are means and standard derivations from three separate experiments. *p < 0.05 as compared to DMSO-treated samples at the end of experiments. In b, data are means of two independent experiments
# [2] = system: RCC IV; assay: RCC IV activity in submitochondrial particles; type: biochemical, rat; set-up: key to RCC IV at 50XCmax / RCC IV at 100XCmax: activity relative to DMSO-treated controls (control set as 1 = 100%); conditions: for RCC activity IV: 15 min, DMSO-treated = 100
# Summary of the method: (§1)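 Inhibitors preincubated 15 min with submitochondrial particles (1 mg/ml) before activity readout. RCC I (rotenone-sensitive fraction) and I/V: A340, and RCC II: A600, each every 1 min for 6 min; RCC III/IV: A550 every 10 s for 2 min. Activities relative to DMSO control set as 1.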
# [3] = system: isolated rat liver mitochondria; assay: Mitochondrial toxicity, any endpoint, intact mitochondria and submitochondrial particles; type: biochemical; conditions: highest concentrations tested
# Procedure: Rats were anesthetized by an intraperitoneal injection of Nembutal and the liver perfused with PBS to remove the blood. The liver was then cut into small pieces and homogenized using a Dounce type homogenizer in the ice-cold isolation buffer (IB) containing 200 mM sucrose, 10 mM Tris-MOPS, 1 mM EGTA (pH 7.4). The sample was then centrifuged at 600g for 10 min. The supernatant was further centrifuged at 7500g for 10 min, and the pellets was washed once with the IB and centrifuged again at 7500g for 10 min to collect mitochondria. […] Before drug treatment, the protein concentration was adjusted to 1 mg/ml using appropriate buffer. […] Briefly, mitochondrial and cytosolic fractions from four different preparations using four rats were diluted using the Laemmli protein loading buffer and subject to SDS-PAGE with 4–20% gradient gels. The proteins were blotted to PVDF membranes and detected using antibodies against GAPDH, ATP5A, UQCRC2, SDHB, and NDUFB8.
# The aliquoted stock solutions were kept for less than one month and each tube was used only once. The KIs were added to the mitochondria at 1:1000 dilutions. […] The Cmax data were from clinical trials which used FDA recommend dosages, route of administration, and duration. […] The final concentration of DMSO for drug treatment was always 0.1%, and control treatments were 0.1% DMSO.
# [4] = system: RCC III; assay: RCC III activity in submitochondrial particles; type: biochemical, rat; set-up: key to RCC III at 100XCmax: activity relative to DMSO-treated controls (control set as 1 = 100%); conditions: for RCC activity III: 15 min, DMSO-treated = 100
# Summary of the method: as §1
# [5] = system: isolated rat liver mitochondria; assay: Mitochondrial swelling (absorbance at 535 nm); type: biochemical; conditions: difference in signal between KI and DMSO treated samples at the end of experiments; for Swelling 5XCmax: key: 0 indicates that the drug had no effects (negative)
# [6] = system: isolated rat liver mitochondria; conditions: positive control alamethicin treated samples
# [7] = biological target: T1, RCC II (Rattus norvegicus, UniProt P21913+Q641Z9+Q6PCT8+Q920L2); assay: RCC II activity in submitochondrial particles; type: biochemical; set-up: key: activity relative to DMSO-treated controls (control set as 1 = 100%); conditions: DMSO treated samples set as 1
# T1 construct: Submitochondrial particles were prepared by subjecting the intact mitochondria to three successive freeze–thaw cycles; from tissue; host or cells: rat liver mitochondria, used as submitochondrial particles
# Summary of the method: as §1
# [8] = system: isolated rat liver mitochondria; assay: Mitochondrial ROS production (CM-H2DCFDA); conditions: DMSO treated samples set as 1
# [9] = cited from earlier work
# [10] = system: isolated rat liver mitochondria; assay: Mitochondrial oxygen consumption (glutamate/malate or succinate driven, state 4 and state 3); type: biochemical; for State 3 respiration driven by succinate at 10XCmax: key: 0 indicates that the drug had no effects (negative); for State 3 respiration driven by succinate at 1XCmax: key: 0 indicates that the drug had no effects (negative)
# Summary of the method: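 Rat liver mitochondria (1 mg/ml protein) exposed 5 min to kinase inhibitors in 0.1% DMSO, then O2 consumption measured by Clark-type electrode with glutamate/malate or succinate (state 4), ADP added after 3 min (state 3). Rates normalized to 0.1% DMSO controls set to 1.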
# [11] = system: RCC V; assay: RCC V activity in submitochondrial particles; type: biochemical, rat; for RCC V at 5XCmax: key: 0 indicates that the drug had no effects (negative)
# Summary of the method: as §1
# [12] = ref product labeling, cited from earlier work
# [13] = cited from earlier work; remark: listed apart in the source
# [14] = system: RCC I; assay: RCC I activity in submitochondrial particles; type: biochemical, rat; set-up: key to RCC I at 10XCmax / RCC I at 100XCmax / RCC I at 50XCmax / RCC I at 30XCmax / RCC I at 20XCmax: activity relative to DMSO-treated controls (control set as 1 = 100%); conditions: for RCC activity I: 15 min, DMSO-treated = 100
# Summary of the method: as §1
# [15] = system: RCC I–V; assay: Activities of RCC I–V, overall statements; type: biochemical, rat; conditions: submitochondrial particles
# Procedure: KIs were incubated with submitochondrial particles (1 mg/ml) for 15 min and then RCC I–V activities measured. […] The activities of DMSO-treated samples (controls) were set as 1. […] The difference between the activity from rotenone-containing buffer and rotenone-absent buffer was considered as RCC I activity. […] For measuring RCC I/V and II activity, the changes in absorbance at 340 and 600 nm, respectively, were determined every 1 min for 6 min. For measuring RCC III and RCC IV, the changes in absorbance at 550 nm were measured every 10 s for 2 min.
# [16] = 1XCmax, DMSO treated samples set as 1
# [17] = 2.5XCmax, DMSO treated samples set as 1
# [18] = 5XCmax, DMSO treated samples set as 1
# [19] = 10XCmax, DMSO treated samples set as 1
# [20] = 20XCmax, DMSO treated samples set as 1
# [21] = 30XCmax, DMSO treated samples set as 1
# [22] = 50XCmax, DMSO treated samples set as 1
# [23] = 100XCmax, DMSO treated samples set as 1
# [24] = human therapeutic Cmax at FDA recommended dosages, ref product labeling and drug approval packages at the official FDA website
# T1 sequence (Q920L2 35-656): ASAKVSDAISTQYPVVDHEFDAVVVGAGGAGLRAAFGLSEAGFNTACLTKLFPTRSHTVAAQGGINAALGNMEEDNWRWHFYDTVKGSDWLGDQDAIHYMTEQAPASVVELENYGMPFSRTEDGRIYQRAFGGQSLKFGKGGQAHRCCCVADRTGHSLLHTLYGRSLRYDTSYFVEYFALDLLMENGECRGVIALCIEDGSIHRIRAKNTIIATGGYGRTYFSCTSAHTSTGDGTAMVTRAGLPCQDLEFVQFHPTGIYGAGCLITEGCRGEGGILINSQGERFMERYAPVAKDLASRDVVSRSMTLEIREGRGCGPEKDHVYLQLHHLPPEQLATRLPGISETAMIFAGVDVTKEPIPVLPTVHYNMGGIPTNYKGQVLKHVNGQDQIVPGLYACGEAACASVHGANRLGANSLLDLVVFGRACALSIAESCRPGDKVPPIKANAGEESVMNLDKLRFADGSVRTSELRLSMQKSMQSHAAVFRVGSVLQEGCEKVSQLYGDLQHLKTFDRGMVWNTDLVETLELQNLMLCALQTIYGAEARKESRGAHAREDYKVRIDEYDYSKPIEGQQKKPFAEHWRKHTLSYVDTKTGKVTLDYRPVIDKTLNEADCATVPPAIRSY
# T1 sequence (P21913 31-282): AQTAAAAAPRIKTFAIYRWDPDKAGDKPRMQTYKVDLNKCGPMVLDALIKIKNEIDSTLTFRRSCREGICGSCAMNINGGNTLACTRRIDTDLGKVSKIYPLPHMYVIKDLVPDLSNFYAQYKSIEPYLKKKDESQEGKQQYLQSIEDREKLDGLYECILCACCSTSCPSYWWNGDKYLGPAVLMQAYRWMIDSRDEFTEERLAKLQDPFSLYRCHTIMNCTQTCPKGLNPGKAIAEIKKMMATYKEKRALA
# T1 sequence (Q641Z9 1-169): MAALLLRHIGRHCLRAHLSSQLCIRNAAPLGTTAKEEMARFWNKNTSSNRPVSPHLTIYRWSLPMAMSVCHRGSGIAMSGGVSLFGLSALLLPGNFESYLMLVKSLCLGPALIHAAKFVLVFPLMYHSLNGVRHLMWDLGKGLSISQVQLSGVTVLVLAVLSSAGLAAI
# T1 sequence (Q6PCT8 57-159): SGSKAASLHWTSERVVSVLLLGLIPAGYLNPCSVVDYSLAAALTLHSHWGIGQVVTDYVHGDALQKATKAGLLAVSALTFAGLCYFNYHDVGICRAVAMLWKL
structure (smiles),measurement,setting,value
Cc1ccc(C(=O)Nc2ccc(CN3CCN(C)CC3)c(C(F)(F)F)c2)cc1C#Cc1cnc2cccnn12 [Ponatinib],MMP measured by Rhodamine 123 at 1XCmax,[1]; 1XCmax,0
same,MMP measured by Rhodamine 123 at 2.5XCmax,[1]; 2.5XCmax,0
same,MMP measured by Rhodamine 123 at 5XCmax,[1]; 5XCmax,0
same,MMP measured by Rhodamine 123 at 10XCmax,[1]; 10XCmax,0
same,MMP measured by Rhodamine 123 at 20XCmax,[1]; 20XCmax,0
same,MMP measured by Rhodamine 123 at 30XCmax,[1]; 30XCmax,0
same,MMP measured by Rhodamine 123 at 50XCmax,[1]; 50XCmax,0
same,MMP measured by Rhodamine 123 at 100XCmax,[1]; 100XCmax,0
same,RCC IV at 50XCmax,"[2]; 50XCmax, DMSO treated samples set as 1, in %",0
same,effects on intact mitochondria or submitochondrial particles,[3],no effects
same,RCC III at 100XCmax,[4]; 100XCmax,0
same,Swelling 1XCmax,[5]; 1XCmax,0
same,Swelling 2.5XCmax,[5]; 2.5XCmax,0
same,Swelling 5XCmax,[5]; 5XCmax,0
same,Swelling 10XCmax,[5]; 10XCmax,0
same,Swelling 20XCmax,[5]; 20XCmax,0
same,Swelling 30XCmax,[5]; 30XCmax,0
same,Swelling 50XCmax,[5]; 50XCmax,0
same,Swelling 100XCmax,[5]; 100XCmax,0
same,Cytochrome c release 1XCmax,[6]; 1XCmax,0
same,Cytochrome c release 2.5XCmax,[6]; 2.5XCmax,0
same,Cytochrome c release 5XCmax,[6]; 5XCmax,0
same,Cytochrome c release 10XCmax,[6]; 10XCmax,0
same,Cytochrome c release 20XCmax,[6]; 20XCmax,0
same,Cytochrome c release 30XCmax,[6]; 30XCmax,0
same,Cytochrome c release 50XCmax,[6]; 50XCmax,0
same,Cytochrome c release 100XCmax,[6]; 100XCmax,0
same,RCC II at 1.0XCmax,[7]; 1.0XCmax,0
same,RCC II at 2.5XCmax,[7]; 2.5XCmax,0
same,RCC II at 5XCmax,[7]; 5XCmax,0
same,RCC II at 10XCmax,[7]; 10XCmax,0
same,RCC II at 20XCmax,[7]; 20XCmax,0
same,RCC II at 30XCmax,[7]; 30XCmax,0
same,RCC II at 50XCmax,[7]; 50XCmax,0
same,RCC II at 100XCmax,[7]; 100XCmax,0
same,ROS measured by CM-H2DCFDA at 1XCmax,[8]; 1XCmax,0
same,ROS measured by CM-H2DCFDA at 2.5XCmax,[8]; 2.5XCmax,0
same,ROS measured by CM-H2DCFDA at 5XCmax,[8]; 5XCmax,0
same,ROS measured by CM-H2DCFDA at 10XCmax,[8]; 10XCmax,0
same,ROS measured by CM-H2DCFDA at 20XCmax,[8]; 20XCmax,0
same,ROS measured by CM-H2DCFDA at 30XCmax,[8]; 30XCmax,0
same,ROS measured by CM-H2DCFDA at 50XCmax,[8]; 50XCmax,0
same,ROS measured by CM-H2DCFDA at 100XCmax,[8]; 100XCmax,0
same,Cmax (ng or µg/ml),"[9]; human therapeutic maximal blood concentration, ref product labeling",0.073 µg/mL
same,Cmax,"[9]; read-out: Cmax at µM, human therapeutic maximal blood concentration, ref product labeling",0.14 µM
same,State 3 respiration driven by succinate at 1XCmax,[10]; [16],0
same,State 4 respiration driven by succinate at 1XCmax,[10]; [16],0
same,State 3 respiration driven by succinate at 2.5XCmax,[10]; [17],0
same,State 4 respiration driven by succinate at 2.5XCmax,[10]; [17],0
same,State 3 respiration driven by succinate at 5XCmax,[10]; [18],0
same,State 4 respiration driven by succinate at 5XCmax,[10]; [18],0
same,State 3 respiration driven by succinate at 10XCmax,[10]; [19],0
same,State 4 respiration driven by succinate at 10XCmax,[10]; [19],0
same,State 3 respiration driven by succinate at 20XCmax,[10]; [20],0
same,State 4 respiration driven by succinate at 20XCmax,[10]; [20],0
same,State 3 respiration driven by succinate at 30XCmax,[10]; [21],0
same,State 4 respiration driven by succinate at 30XCmax,[10]; [21],0
same,State 3 respiration driven by succinate at 50XCmax,[10]; [22],0
same,State 4 respiration driven by succinate at 50XCmax,[10]; [22],0
same,State 3 respiration driven by succinate at 100XCmax,[10]; [23],0
same,State 4 respiration driven by succinate at 100XCmax,[10]; [23],0
same,RCC V at 5XCmax,[11]; [18],0
same,RCC V at 50XCmax,[11]; [22],0
same,Labeling for cardiotoxicity,"[12]; BBW: black box warning, W&P: Warnings and Precautions",BBW: Heart Failure
same,Potential for cardiotoxicity (based on labeling),[12],1
same,DILI potential (based on labeling),[13]; in vivo,1
same,Labeling for DILI,[13]; in vivo,BBW: fatal DILI
same,labeling for DILI,[13]; in vivo,BBW: fatal DILI
same,RCC I at 10XCmax,[14]; [19],0
C#Cc1cccc(Nc2ncnc3cc(OCCOC)c(OCCOC)cc23)c1 [Erlotinib],RCC activity IV,[2]; 10-fold Cmax,98.77 ± 4.53 % of control
same,RCC activity III,[4]; 10-fold Cmax,103.11 ± 12.25 % of control
same,Cmax,[9]; [24],3.44 µM
same,RCC activity V,"[11]; 10-fold Cmax, 15 min, DMSO-treated = 100",83.52 ± 2.96 % of control
same,lowest concentration inhibiting RCCs,[15],10 fold Cmax
same,labeling for DILI,[13]; in vivo,W&P: fatal DILI
same,DILI potential (based on labeling),[13]; ref FDA product labeling,1
same,RCC activity I,[14]; 10-fold Cmax,90.62 ± 2.87 % of control
Cc1ccc(Nc2nccc(N(C)c3ccc4c(C)n(C)nc4c3)n2)cc1S(N)(=O)=O [Pazopanib],RCC activity IV,[2]; 1-fold Cmax,102.68 ± 0.57 % of control
same,RCC activity III,[4]; 1-fold Cmax,96.90 ± 11.69 % of control
same,Cmax,[9]; [24],133 µM
same,Cmax,"[9]; human therapeutic Cmax at FDA recommended dosages, ref product labeling and drug approval packages at the official FDA website, listed as pazopanib",133 µM
same,inhibition of state 3 mitochondrial respiration driven by glutamate/malate,[10]; onefold Cmax,over 50%
same,lowest concentration inhibiting RCCs,[15],equal to Cmax
same,RCCs inhibited,[15]; up to 100-fold Cmax or highest testable concentration,inhibitor of RCC I but not other RCCs
same,RCC activity I,[14]; 1-fold Cmax,83.77 ± 2.98 % of control
